Measured values from patent US8008077B2, “Photochemical internalization for delivery of molecules into the cytosol” (priority 2000, dated 2011).

Test system: V-79 cells
Test: PCI cell killing by bleomycin, cell survival by MTT assay
Type: cell-based, Chinese hamster
Conditions: light before
Description: The Chinese hamster lung fibroblast cell line V-79 was used in this study.
The cells (75 000 cells/well, 1 ml/well) were seeded into 12-well plates (Costar Corning, N.Y., USA) and allowed to attach for 6 h. To some of the wells 1 ml medium with 0.7 μg/ml TPPS2a was added (see Table 1), and the cells were incubated for 18 h (5% v/v CO2, 37° C.) The cells were washed three times with medium. The cells were then incubated in serum-containing medium for 4 h. The medium was removed, new medium was added and the cells were illuminated by exposure to light from a box containing a bank of four fluorescent tubes (Osram 18W/67) with the highest fluence around 420 nm.
Different doses of bleomycin were immediately added. After 1 or 4 h incubation with bleomycin the cells were washed once with RPMI-medium, 1 ml of medium was added and after 3 days of incubation cell survival was measured by the MTT assay. This method is based on reduction of a water-soluble tetrazolium salt (MTT) to a purple, insoluble formazan product by mitochondrial dehydrogenases present in living, metabolically active cells. […] The solution is transferred to a 96 wells plate which is read by a Multiskan EX microplate reader (Labsystems, Finland) with a 570 nm bandpass filter. Cell survival is calculated as percent of control cells not receiving light treatment.

bleomycin
light-induced effect on cytotoxicity (cell survival, MTT) (100 μM bleomycin, 1 or 4 h, with 0.7 μg/ml TPPS2a): substantial light-induced increase in the cytotoxicity
light-induced effect on cell survival (MTT) (lowest dose of bleomycin (5 μM, 1 h), with TPPS2a): lack of effect
